According to US11759455B2, “Substituted 1H-imidazo[4,5-b]pyridin-2(3H)-ones and their use as GLUN2B receptor modulators” (JANSSEN PHARMACEUTICA NV, priority 2016, dated 2023):
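Note: stable Tet-On inducible cell line, Ca2+ influx triggered by glutamate at about EC40 plus 10 µM glycine, fluorescent dye read-out over 5 min, normalized to control wells.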

These compounds were tested against T1, human GluN1/GluN2B NMDA receptors (Homo sapiens, UniProt Q13224) (assay: Cell-based calcium flux (FLIPR) assay on cloned human NR1/NR2B ion channels expressed in mammalian cells (standard and HTS buffer variants)). Conditions: standard assay buffer (0.5 mM MgCl2 dye loading; 137 mM NaCl, 4 mM KCl assay buffer), human GluN1/GluN2B cells, read-out: NR2B IC50 (μM) standard assay.
T1 construct: expressed in transfected cells
T1 sequence (Q13224 27-1484, other chains not shown): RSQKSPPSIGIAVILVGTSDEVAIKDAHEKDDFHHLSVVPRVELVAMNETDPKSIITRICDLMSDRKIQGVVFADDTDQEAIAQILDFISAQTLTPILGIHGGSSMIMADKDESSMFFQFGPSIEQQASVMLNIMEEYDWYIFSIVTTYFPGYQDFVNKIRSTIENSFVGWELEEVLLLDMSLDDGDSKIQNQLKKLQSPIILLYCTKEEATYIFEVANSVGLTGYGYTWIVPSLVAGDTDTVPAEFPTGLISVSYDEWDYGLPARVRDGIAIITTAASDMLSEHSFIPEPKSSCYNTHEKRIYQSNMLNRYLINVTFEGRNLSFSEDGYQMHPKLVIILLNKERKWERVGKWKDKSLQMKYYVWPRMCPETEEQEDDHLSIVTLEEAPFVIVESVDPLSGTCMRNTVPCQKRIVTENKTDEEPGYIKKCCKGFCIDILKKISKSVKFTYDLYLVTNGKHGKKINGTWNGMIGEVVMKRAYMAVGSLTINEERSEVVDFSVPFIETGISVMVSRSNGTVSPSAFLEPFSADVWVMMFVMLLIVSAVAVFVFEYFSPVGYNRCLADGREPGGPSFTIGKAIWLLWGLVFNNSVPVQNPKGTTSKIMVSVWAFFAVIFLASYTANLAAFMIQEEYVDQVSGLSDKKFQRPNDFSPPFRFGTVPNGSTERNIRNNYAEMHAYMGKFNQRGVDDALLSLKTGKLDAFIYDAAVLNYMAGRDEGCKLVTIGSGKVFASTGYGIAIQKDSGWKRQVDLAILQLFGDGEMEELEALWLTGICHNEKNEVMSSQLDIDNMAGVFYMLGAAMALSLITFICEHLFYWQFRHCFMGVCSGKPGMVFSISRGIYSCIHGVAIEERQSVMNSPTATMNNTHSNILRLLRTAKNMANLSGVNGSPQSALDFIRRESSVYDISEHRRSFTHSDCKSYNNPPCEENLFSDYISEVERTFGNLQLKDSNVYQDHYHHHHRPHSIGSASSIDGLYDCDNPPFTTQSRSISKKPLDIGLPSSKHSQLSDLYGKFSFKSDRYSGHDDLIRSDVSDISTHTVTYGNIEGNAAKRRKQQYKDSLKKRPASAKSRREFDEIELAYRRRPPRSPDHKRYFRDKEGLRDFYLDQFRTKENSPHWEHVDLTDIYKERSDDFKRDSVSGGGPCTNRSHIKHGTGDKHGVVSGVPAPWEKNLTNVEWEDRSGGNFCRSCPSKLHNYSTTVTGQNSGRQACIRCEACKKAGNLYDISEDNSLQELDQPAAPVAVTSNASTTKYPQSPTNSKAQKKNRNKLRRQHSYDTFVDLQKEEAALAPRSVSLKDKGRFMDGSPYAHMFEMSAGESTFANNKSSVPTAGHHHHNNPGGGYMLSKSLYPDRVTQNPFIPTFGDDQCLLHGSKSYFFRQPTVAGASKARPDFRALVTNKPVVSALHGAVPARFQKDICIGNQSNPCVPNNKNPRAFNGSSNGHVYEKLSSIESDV
`O=c1[nH]c2ncc(-c3cccc(C(F)(F)F)c3)cc2n1Cc1cnccc1C(F)(F)F` [Example 260, 6-[3-(Trifluoromethyl)phenyl]-1-[[4-(trifluoromethyl)-3-pyridyl]methyl]-3H-imidazo[4,5-b]pyridin-2-one] was tested, and the IC50 was 2.86 µM.
For `Cn1c(=O)n(Cc2ncccn2)c2cc(-c3cccc(C(F)(F)F)c3)cnc21` [Example 261, 3-Methyl-1-(pyrimidin-2-ylmethyl)-6-[3-(trifluoromethyl)phenyl]imidazo[4,5-b]pyridin-2-one], the IC50 was 0.573 µM.
For `O=C(Cn1c(=O)[nH]c2ncc(-c3cccc(C(F)(F)F)c3)cc21)C1CCC1` [Example 262, 1-(2-cyclobutyl-2-oxo-ethyl)-6-[3-(trifluoromethyl)phenyl]-3H-imidazo[4,5-b]pyridin-2-one], the IC50 was 0.308 µM.
`Cc1cncc(Cn2c(=O)[nH]c3ncc(-c4ccc(F)c(C)c4)cc32)c1` [Example 269, 6-(4-Fluoro-3-methyl-phenyl)-1-[(5-methyl-3-pyridyl)methyl]-3H-imidazo[4,5-b]pyridin-2-one] showed an IC50 of 0.128 µM.
`Cc1cncc(Cn2c(=O)[nH]c3ncc(-c4ccc(F)c(C)c4F)cc32)c1` [Example 270, 6-(2,4-Difluoro-3-methyl-phenyl)-1-[(5-methyl-3-pyridyl)methyl]-3H-imidazo[4,5-b]pyridin-2-one] was tested, and the IC50 was 0.115 µM.
`Cc1cncc(Cn2c(=O)[nH]c3ncc(-c4ccc(F)c(F)c4)cc32)c1` [Example 272, 6-(3,4-Difluorophenyl)-1-[(5-methyl-3-pyridyl)methyl]-3H-imidazo[4,5-b]pyridin-2-one] showed an IC50 of 0.034 µM.
`Cc1cncc(Cn2c(=O)[nH]c3ncc(-c4cccc(Cl)c4)cc32)c1` [Example 273, 6-(3-Chlorophenyl)-1-[(5-methyl-3-pyridyl)methyl]-3H-imidazo[4,5-b]pyridin-2-one] showed an IC50 of 0.096 µM.
`Cc1cncc(Cn2c(=O)[nH]c3ncc(-c4cccc(F)c4)cc32)c1` [Example 274, 6-(3-Fluorophenyl)-1-[(5-methyl-3-pyridyl)methyl]-3H-imidazo[4,5-b]pyridin-2-one] was tested, and the IC50 was 0.057 µM.
In the case of `Cc1ccncc1Cn1c(=O)[nH]c2ncc(-c3ccc(F)c(F)c3)cc21` [Example 275, 6-(3,4-Difluorophenyl)-1-[(4-methyl-3-pyridyl)methyl]-3H-imidazo[4,5-b]pyridin-2-one], the IC50 is reported as 0.009 µM.
`Cc1ccncc1Cn1c(=O)[nH]c2ncc(-c3cccc(F)c3)cc21` [Example 276, 6-(3-Fluorophenyl)-1-[(4-methyl-3-pyridyl)methyl]-3H-imidazo[4,5-b]pyridin-2-one] gave an IC50 of 0.034 µM.
`Cc1cc(-c2cnc3[nH]c(=O)n(Cc4cnccc4C)c3c2)ccc1F` [Example 277, 6-(4-Fluoro-3-methyl-phenyl)-1-[(4-methyl-3-pyridyl)methyl]-3H-imidazo[4,5-b]pyridin-2-one] gave an IC50 of 0.077 µM.
In the case of `Cc1ccncc1Cn1c(=O)[nH]c2ncc(-c3ccc(F)c(C)c3F)cc21` [Example 278, 6-(2,4-Difluoro-3-methyl-phenyl)-1-[(4-methyl-3-pyridyl)methyl]-3H-imidazo[4,5-b]pyridin-2-one], the IC50 is reported as 0.111 µM.
`O=c1[nH]c2ncc(-c3ccc(F)c(F)c3)cc2n1Cc1ccccn1` [Example 279, 6-(3,4-Difluorophenyl)-1-(2-pyridylmethyl)-3H-imidazo[4,5-b]pyridin-2-one] was tested, and the IC50 was 5.03 µM.
With `Cc1c(F)ccc(-c2cnc3[nH]c(=O)n(Cc4ccccn4)c3c2)c1F` [Example 280, 6-(2,4-Difluoro-3-methyl-phenyl)-1-(2-pyridylmethyl)-3H-imidazo[4,5-b]pyridin-2-one] the IC50 was 0.576 µM.
`O=c1[nH]c2ncc(-c3cccc(F)c3)cc2n1Cc1ccccn1` [Example 281, 6-(3-Fluorophenyl)-1-(2-pyridylmethyl)-3H-imidazo[4,5-b]pyridin-2-one] was tested, and the IC50 was 0.932 µM.
For `O=c1[nH]c2ncc(-c3cccc(Cl)c3)cc2n1Cc1ccccn1` [Example 282, 6-(3-Chlorophenyl)-1-(2-pyridylmethyl)-3H-imidazo[4,5-b]pyridin-2-one], the IC50 was 2.61 µM.
With `Cc1cc(-c2cnc3[nH]c(=O)n(Cc4ccccn4)c3c2)ccc1F` [Example 283, 6-(4-Fluoro-3-methyl-phenyl)-1-(2-pyridylmethyl)-3H-imidazo[4,5-b]pyridin-2-one] the IC50 was 0.079 µM.
In the case of `Cc1cccnc1Cn1c(=O)[nH]c2ncc(-c3ccc(F)c(F)c3)cc21` [Example 284, 6-(3,4-Difluorophenyl)-1-[(3-methyl-2-pyridyl)methyl]-3H-imidazo[4,5-b]pyridin-2-one], the IC50 is reported as > 10 µM.
In the case of `Cc1cccnc1Cn1c(=O)[nH]c2ncc(-c3cccc(F)c3)cc21` [Example 285, 6-(3-Fluorophenyl)-1-[(3-methyl-2-pyridyl)methyl]-3H-imidazo[4,5-b]pyridin-2-one], the IC50 is reported as > 10 µM.
In the case of `O=c1[nH]c2ncc(-c3ccc(F)cc3)cc2n1Cc1ccccn1` [Example 286, 6-(4-Fluorophenyl)-1-(2-pyridylmethyl)-3H-imidazo[4,5-b]pyridin-2-one], the IC50 is reported as 1.98 µM.
`O=c1[nH]c2ncc(-c3cccc(C(F)F)c3)cc2n1Cc1ccccn1` [Example 287, 6-[3-(Difluoromethyl)phenyl]-1-(2-pyridylmethyl)-3H-imidazo[4,5-b]pyridin-2-one] showed an IC50 of 0.107 µM.
In the case of `COc1cccc(-c2cnc3[nH]c(=O)n(Cc4ccccn4)c3c2)c1` [Example 288, 6-(3-Methoxyphenyl)-1-(2-pyridylmethyl)-3H-imidazo[4,5-b]pyridin-2-one], the IC50 is reported as 4.05 µM.
`Cc1ccc(-c2cnc3[nH]c(=O)n(Cc4ccccn4)c3c2)cc1` [Example 289, 6-(p-Tolyl)-1-(2-pyridylmethyl)-3H-imidazo[4,5-b]pyridin-2-one] showed an IC50 of 7.08 µM.
`O=c1[nH]c2ncc(-c3cccc(F)c3)cc2n1Cc1cccnc1` [Example 290, 6-(3-fluorophenyl)-1-(3-pyridylmethyl)-3H-imidazo[4,5-b]pyridin-2-one] showed an IC50 of 0.065 µM.
`O=c1[nH]c2ncc(-c3cccc(C(F)F)c3)cc2n1Cc1cccnc1` [Example 291, 6-[3-(Difluoromethyl)phenyl]-1-(3-pyridylmethyl)-3H-imidazo[4,5-b]pyridin-2-one] gave an IC50 of 0.022 µM.
`O=c1[nH]c2ncc(-c3ccc(F)c(F)c3)cc2n1Cc1cccnc1` [Example 292, 6-(3,4-Difluorophenyl)-1-(3-pyridylmethyl)-3H-imidazo[4,5-b]pyridin-2-one] was tested, and the IC50 was 0.06 µM.
In the case of `Cc1c(F)ccc(-c2cnc3[nH]c(=O)n(Cc4cccnc4)c3c2)c1F` [Example 293, 6-(2,4-Difluoro-3-methyl-phenyl)-1-(3-pyridylmethyl)-3H-imidazo[4,5-b]pyridin-2-one], the IC50 is reported as 0.017 µM.
Work on `Cc1cc(-c2cnc3[nH]c(=O)n(Cc4cccnc4)c3c2)ccc1F` [Example 294, 6-(4-Fluoro-3-methyl-phenyl)-1-(3-pyridylmethyl)-3H-imidazo[4,5-b]pyridin-2-one] yielded an IC50 of 0.023 µM.
Work on `O=c1[nH]c2ncc(-c3ccc(F)cc3)cc2n1Cc1cccnc1` [Example 295, 6-(4-Fluorophenyl)-1-(3-pyridylmethyl)-3H-imidazo[4,5-b]pyridin-2-one] yielded an IC50 of 0.098 µM.
`O=c1[nH]c2ncc(-c3cccc(Cl)c3)cc2n1Cc1cccnc1` [Example 296, 6-(3-Chlorophenyl)-1-(3-pyridylmethyl)-3H-imidazo[4,5-b]pyridin-2-one] was tested, and the IC50 was 0.029 µM.
Compound `Cc1cccc(-c2cnc3[nH]c(=O)n(Cc4cccnc4)c3c2)c1` [Example 297, 6-(m-Tolyl)-1-(3-pyridylmethyl)-3H-imidazo[4,5-b]pyridin-2-one] has an IC50 of 0.027 µM.
With `O=c1[nH]c2ncc(-c3ccc(F)c(F)c3)cc2n1Cc1cncc(F)c1` [Example 298, 6-(3,4-Difluorophenyl)-1-[(5-fluoro-3-pyridyl)methyl]-3H-imidazo[4,5-b]pyridin-2-one] the IC50 was 0.032 µM.
In the case of `Cc1cc(-c2cnc3[nH]c(=O)n(Cc4cncc(F)c4)c3c2)ccc1F` [Example 299, 6-(4-Fluoro-3-methyl-phenyl)-1-[(5-fluoro-3-pyridyl)methyl]-3H-imidazo[4,5-b]pyridin-2-one], the IC50 is reported as 0.019 µM.
`O=c1[nH]c2ncc(-c3cccc(OC(F)F)c3)cc2n1Cc1cccnc1` [Example 300, 6-[3-(Difluoromethoxy)phenyl]-1-(3-pyridylmethyl)-3H-imidazo[4,5-b]pyridin-2-one] showed an IC50 of 0.03 µM.
In the case of `Cc1c(F)ccc(-c2cnc3[nH]c(=O)n(Cc4cncc(F)c4)c3c2)c1F` [Example 301, 6-(2,4-Difluoro-3-methyl-phenyl)-1-[(5-fluoro-3-pyridyl)methyl]-3H-imidazo[4,5-b]pyridin-2-one], the IC50 is reported as 0.045 µM.
`O=c1[nH]c2ncc(-c3cccc(C(F)F)c3)cc2n1Cc1cncc(F)c1` [Example 302, 6-[3-(Difluoromethyl)phenyl]-1-[(5-fluoro-3-pyridyl)methyl]-3H-imidazo[4,5-b]pyridin-2-one] showed an IC50 of 0.022 µM.
For `O=c1[nH]c2ncc(-c3cccc(F)c3F)cc2n1Cc1cncc(F)c1` [Example 303, 6-(2,3-Difluorophenyl)-1-[(5-fluoro-3-pyridyl)methyl]-3H-imidazo[4,5-b]pyridin-2-one], the IC50 was 0.03 µM.
In the case of `O=c1[nH]c2ncc(-c3cccc(OC(F)F)c3)cc2n1Cc1cncc(F)c1` [Example 304, 6-[3-(Difluoromethoxy)phenyl]-1-[(5-fluoro-3-pyridyl)methyl]-3H-imidazo[4,5-b]pyridin-2-one], the IC50 is reported as 0.021 µM.
For `O=c1[nH]c2ncc(-c3cccc(Cl)c3)cc2n1Cc1cncc(F)c1` [Example 305, 6-(3-Chlorophenyl)-1-[(5-fluoro-3-pyridyl)methyl]-3H-imidazo[4,5-b]pyridin-2-one], the IC50 was 0.013 µM.
For `Cc1cc(-c2cnc3[nH]c(=O)n(Cc4cncc(F)c4)c3c2)ccc1Cl` [Example 306, 6-(4-Chloro-3-methyl-phenyl)-1-[(5-fluoro-3-pyridyl)methyl]-3H-imidazo[4,5-b]pyridin-2-one], the IC50 was 0.086 µM.
With `O=c1[nH]c2ncc(-c3cccc(OC(F)(F)F)c3)cc2n1Cc1cncc(F)c1` [Example 307, 1-[(5-Fluoro-3-pyridyl)methyl]-6-[3-(trifluoromethoxy)phenyl]-3H-imidazo[4,5-b]pyridin-2-one] the IC50 was 0.088 µM.
Work on `Cc1cncc(Cn2c(=O)[nH]c3ncc(-c4cc(F)c(F)c(F)c4)cc32)c1` [Example 308, 1-[(5-Methyl-3-pyridyl)methyl]-6-(3,4,5-trifluorophenyl)-3H-imidazo[4,5-b]pyridin-2-one] yielded an IC50 of 0.03 µM.
